Reference: patent publication US20080280937A1, “Ligand Conjugates of Vinca Alkaloids, Analogs, and Derivatives” (priority 2005, published 2008)
pIC50: −log10 of the molar value. Values joined by “and” are separate entries in the source; they are usually repeats but may differ in a detail not shown here. Equal entries are not always repeated. “Also recorded” adds a separate entry of the source. Where two headings read alike, the source gives them in different places. Marks after values point to notes of the source that are not given here.

Columns and labels:
folate receptors (FRs) = target: T1, folate receptors (FRs) (Homo sapiens, UniProt P15328); experiment: Relative Affinity Assay (displacement of 3H-folic acid on FR-positive KB cells); assay type: binding; settings: for relative binding affinity versus folic acid at folic acid receptors: figure legends, folic acid = 1.0, 1 hour at 37° C; for Relative Folate Receptor Affinity: summary table
T1 construct: FR-positive KB cells were heavily seeded into 24-well cell culture plates; endogenous in cells; host or cells: KB cells
T1 sequence (P15328 25-234): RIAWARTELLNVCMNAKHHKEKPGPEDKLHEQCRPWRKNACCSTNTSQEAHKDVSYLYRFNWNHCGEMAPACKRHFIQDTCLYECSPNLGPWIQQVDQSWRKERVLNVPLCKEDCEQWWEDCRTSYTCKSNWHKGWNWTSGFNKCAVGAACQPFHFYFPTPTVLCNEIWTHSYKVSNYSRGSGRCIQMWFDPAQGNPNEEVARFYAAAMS
Procedure: Relative Affinity Assay. The affinity of the compounds described herein for folate receptors (FRs) relative to folate was determined according to a previously described method (Westerhof, G. R., J. H. Schornagel, et al. (1995) Mol. Pharm. 48: 459-471) with slight modification. Briefly, FR-positive KB cells were heavily seeded into 24-well cell culture plates and allowed to adhere to the plastic for 18 h. Spent incubation media was replaced in designated wells with folate-free RPMI (FFRPMI) supplemented with 100 nM ^3H-folic acid in the absence and presence of increasing concentrations of test article or folic acid. Cells were incubated for 60 min at 37° C. and then rinsed 3 times with PBS, pH 7.4, followed by the addition of 500 μL of 1% SDS in PBS, pH 7.4. Cell lysates were then collected and added to individual vials containing 5 mL of scintillation cocktail, and then counted for radioactivity. Negative control tubes contained only the ^3H-folic acid in FFRPMI (no competitor). Positive control tubes contained a final concentration of 1 mM folic acid, and CPMs measured in these samples (representing non-specific binding of label) were subtracted from all samples.

[1] = Animal Weight Determination; settings: for weight of Balb/c mice: 3 μmol/kg TIW for 3 weeks (FIG. 25B); for Weight Loss: nu/nu mice with KB tumors
Procedure: Animal Weight Determination. The percentage weight change of the mice was determined in mice (5 mice/group) on the indicated days post-tumor inoculation (PTI) as shown in the graph for the samples described in the related tumor volume assay.

[2] = tested on: folate receptor-positive KB cells; assay type: cell-based, human; settings: for competition by excess folic acid of effect on 3H-thymidine incorporation: with versus without at least 100-fold excess of folic acid
Procedure: Inhibition of Cellular DNA Synthesis. The compounds described herein were evaluated using an in vitro cytotoxicity assay that predicts the ability of the drug to inhibit the growth of folate receptor-positive KB cells. The compounds were comprised of folate linked to a respective chemotherapeutic drug, as prepared according to the protocols described herein. The KB cells were exposed for predetermined periods of time at 37° C. to the indicated concentrations of folate-drug conjugate in the absence or presence of at least a 100-fold excess of folic acid. The cells were then rinsed with fresh culture medium and incubated in fresh culture medium for 72 hours at 37° C. Cell viability was assessed using a ^3H-thymidine incorporation assay.

KB tumors = assay type: in vivo, nu/nu mice; settings: for % T/C / LCK (log of cell kill): animals not showing complete response
Procedure: Inhibition of Tumor Growth in Mice. The anti-tumor activity of the compounds described herein, when administered intravenously (i.v.) to tumor-bearing animals, was evaluated in nu/nu mice bearing subcutaneous KB tumors. Approximately 8 to 11 days post tumor inoculation in the subcutis of the right axilla with 1×10^6 KB cells (tumor volume range at t0=between 60 and 80 mm^3), mice (5/group) were injected i.v. three times a week (TIW), for a defined length of time (e.g., 2-3 weeks) with (a) a defined dose level on a per kilogram body weight basis of a drug delivery conjugate described herein, or (b) an equivalent dose volume of PBS (control). Tumor growth was measured using calipers at 2-day or 3-day intervals in each treatment group. Tumor volumes were calculated using the equation V=a×b^2/2, where “a” is the length of the tumor and “b” is the width expressed in millimeters.

[3] = KB cells, without excess folic acid, read-out: IC50, 3H-thymidine incorporation in KB cells

CC[C@]1(O)C[C@H]2CN(CCc3c([nH]c4ccccc34)[C@@](C(=O)OC)(c3cc4c(cc3OC)N(C)[C@H]3[C@@](O)(C(=O)NCCOC(=O)OCCSSC[C@H](NC(=O)[C@H](CC(=O)O)NC(=O)[C@H](CCCNC(=N)N)NC(=O)[C@H](CC(=O)O)NC(=O)CC[C@H](NC(=O)c5ccc(NCc6cnc7nc(N)[nH]c(=O)c7n6)cc5)C(=O)O)C(=O)O)[C@H](O)[C@]5(CC)C=CCN6CC[C@]43[C@@H]65)C2)C1 [Example 22]
relative binding affinity versus folic acid at folic acid receptors (folate receptors (FRs)): 0.26 | weight of Balb/c mice [1]: little effect on the weight of the mice; also recorded: absence of an effect

CC[C@]1(O)C[C@H]2CN(CCc3c([nH]c4ccccc34)[C@@](C(=O)OC)(c3cc4c(cc3OC)N(C)[C@H]3[C@@](O)(C(=O)NNC(=O)OCCSSC[C@H](NC(=O)[C@H](CN)NC(=O)[C@H](CC(=O)O)NC(=O)[C@H](CC(=O)O)NC(=O)[C@H](CC(=O)O)NC(=O)CC[C@H](NC(=O)c5ccc(NCc6cnc7nc(N)[nH]c(=O)c7n6)cc5)C(=O)O)C(=O)O)[C@H](O)[C@]5(CC)C=CCN6CC[C@]43[C@@H]65)C2)C1 [Example 10]
relative binding affinity versus folic acid at folic acid receptors (folate receptors (FRs)): 0.24 | pIC50 [2, 3]: 7.24 and ~7.24 | competition by excess folic acid of effect on 3H-thymidine incorporation [2]: folate competes

CC[C@]1(O)C[C@H]2CN(CCc3c([nH]c4ccccc34)[C@@](C(=O)OC)(c3cc4c(cc3OC)N(C)[C@H]3[C@@](O)(C(=O)NNC(=O)OCCSSC[C@H](NC(=O)c5ccc(NCc6cnc7nc(N)[nH]c(=O)c7n6)cc5)C(=O)O)[C@H](O)[C@]5(CC)C=CCN6CC[C@]43[C@@H]65)C2)C1 [Example 19]
relative binding affinity versus folic acid at folic acid receptors (folate receptors (FRs)): 0.046 | Relative Folate Receptor Affinity (folate receptors (FRs)): 0.05 | Folate Receptor Competition ([2]; summary table): Yes | competition by excess folic acid of effect on 3H-thymidine incorporation [2]: folate competes

CC[C@]1(O)C[C@H]2CN(CCc3c([nH]c4ccccc34)[C@@](C(=O)OC)(c3cc4c(cc3OC)N(C)[C@H]3[C@@](O)(C(=O)NNC(=O)OCCSSC[C@H](NC(=O)[C@H](CC(=O)O)NC(=O)[C@H](CC(=O)O)NC(=O)[C@H](CCCNC(=N)N)NC(=O)[C@H](CC(=O)O)NC(=O)[C@H](CCC(=O)O)NC(=O)c5ccc(NCc6cnc7nc(N)[nH]c(=O)c7n6)cc5)C(=O)O)[C@H](O)[C@]5(CC)C=CCN6CC[C@]43[C@@H]65)C2)C1 [Example 11]
weight of nu/nu mice ([1]; 2 μmol/kg TIW for 3 weeks (FIG. 26B)): little effect on the weight of the mice; also recorded: absence of an effect

CC[C@]1(O)C[C@@H]2CN(CCc3c([nH]c4ccccc34)[C@@](C(=O)OC)(c3cc4c(cc3OC)N(C)[C@H]3[C@@](O)(C(=O)NN)[C@H](O)[C@]5(CC)C=CCN6CC[C@]43[C@@H]65)C2)C1 [DAVLBH, desacetylvinblastine hydrazide]
CR (animals of 5 showing a complete response) (KB tumors; 0.5 μmol/kg TIW 2 wk): 0/5 | % T/C (KB tumors; 0.5 μmol/kg TIW 2 wk): 146% | LCK (log of cell kill) (KB tumors; 0.5 μmol/kg TIW 2 wk): 0.6 | CR (animals of 5 showing a complete response) (KB tumors; 0.75 μmol/kg TIW 2 wk): 0/5 | % T/C (KB tumors; 0.75 μmol/kg TIW 2 wk): 265% | LCK (log of cell kill) (KB tumors; 0.75 μmol/kg TIW 2 wk): 1.8 | CR (animals of 5 showing a complete response) (KB tumors; 1 μmol/kg TIW 2 wk): 0/5 | % T/C (KB tumors; 1 μmol/kg TIW 2 wk): 246% | LCK (log of cell kill) (KB tumors; 1 μmol/kg TIW 2 wk): 1.8 | CR (animals of 5 showing a complete response) (KB tumors; 2 μmol/kg TIW 2 wk): 0/5^(d) | deaths (KB tumors; 2 μmol/kg TIW 2 wk, 5 animals): ^(d)5 deaths. | Weight Loss ([1]; 0.5 μmol/kg TIW 2 wk): 0% | Weight Loss ([1]; 0.75 μmol/kg TIW 2 wk): 0% | Weight Loss ([1]; 1 μmol/kg TIW 2 wk): >10% | Weight Loss ([1]; 2 μmol/kg TIW 2 wk): >20%

CC[C@]1(O)C[C@H]2CN(CCc3c([nH]c4ccccc34)[C@@](C(=O)OC)(c3cc4c(cc3OC)N(C)[C@H]3[C@@](O)(C(=O)NNC(=O)OCCSSC[C@H](NC(=O)CC[C@H](NC(=O)c5ccc(NCc6cnc7nc(N)[nH]c(=O)c7n6)cc5)C(=O)O)C(=O)O)[C@H](O)[C@]5(CC)C=CCN6CC[C@]43[C@@H]65)C2)C1 [Example 18]
relative binding affinity versus folic acid at folic acid receptors (folate receptors (FRs)): 0.13 | Relative Folate Receptor Affinity (folate receptors (FRs)): 0.13 | Folate Receptor Competition ([2]; summary table): Yes | competition by excess folic acid of effect on 3H-thymidine incorporation [2]: folate competes

Nc1nc2ncc(CNc3ccc(C(=O)N[C@H](CCC(=O)NC[C@H](N)C(=O)N[C@@H](CC(=O)O)C(=O)N[C@@H](CS)C(=O)O)C(=O)O)cc3)nc2c(=O)[nH]1 [EC20]
competition with Example 7 at folate receptors (KB tumors; 40 μmol/kg EC20 (rhenium complex) with 2 μmol/kg Example 7): acts as a competitor of Example 7 at folate receptors

CC[C@]1(O)C[C@H]2CN(CCc3c([nH]c4ccccc34)[C@@](C(=O)OC)(c3cc4c(cc3OC)N(C)[C@H]3[C@@](O)(C(=O)NNC(=O)OCCSSC[C@H](NC(=O)[C@H](CC(=O)O)NC(=O)[C@H](CC(=O)O)NC(=O)[C@H](CC(=O)O)NC(=O)[C@H](CC(=O)O)NC(=O)CC[C@H](NC(=O)c5ccc(NCc6cnc7nc(N)[nH]c(=O)c7n6)cc5)C(=O)O)C(=O)O)[C@H](O)[C@]5(CC)C=CCN6CC[C@]43[C@@H]65)C2)C1 [Example 21]
relative binding affinity versus folic acid at folic acid receptors (folate receptors (FRs)): 0.16 | weight of Balb/c mice [1]: little effect on the weight of the mice; also recorded: absence of an effect

CC[C@]1(O)C[C@H]2CN(CCc3c([nH]c4ccccc34)[C@@](C(=O)OC)(c3cc4c(cc3OC)N(C)[C@H]3[C@@](O)(C(=O)NNC(=O)OCCSSC[C@H](NC(=O)[C@H](CC(=O)O)NC(=O)[C@H](CC(=O)O)NC(=O)[C@H](CCCNC(=N)N)NC(=O)[C@H](CC(=O)O)NC(=O)CC[C@H](NC(=O)c5ccc(NCc6cnc7nc(N)[nH]c(=O)c7n6)cc5)C(=O)O)C(=O)O)[C@H](O)[C@]5(CC)C=CCN6CC[C@]43[C@@H]65)C2)C1 [Example 7]
Relative Folate Receptor Affinity (folate receptors (FRs)): 0.17 | pIC50 [2, 3]: 8.05 and ~7.80 | pIC50 ([2]; summary table, read-out: IC50 KB Cells): > 7.00

Nc1nc2ncc(CNc3ccc(C(=O)N[C@@H](CCC(=O)O)C(=O)O)cc3)nc2c(=O)[nH]1 [folic acid, reference compound]
relative binding affinity versus folic acid at folic acid receptors (folate receptors (FRs)): 1.0
